Structures are written as SMILES.

The source of these data is a melting point compilation (Tetko et al.; mined from patent text by program, amines drawn as free bases though some values may be those of a salt).

As usually defined, the melting point is the temperature of the solid-liquid transition. `CC(=S)NC[C@H]1CN(c2ccc3c(c2)OC[C@@H](C)N3)C(=O)O1` returned a melting point of 74 to 77 °C. To `CC(=O)OCC(=O)C1C(C)CC2C3CC(Cl)C4=CC(=O)CCC4(C)C3C(O)CC21C` (configuration not stated) belongs 209 °C; to `Cn1c(C(F)(F)F)cc(=O)n(-c2cc(OCCOC=C(Cl)Cl)c(Cl)cc2F)c1=O`, 97 to 99 °C; to `O=c1[nH]c2cc(Cl)ccc2n1C1CCN(C[C@H]2CO[C@@H](c3ccc(F)cc3)C2)CC1` (relative stereo), 208 °C. To `CCOC(=O)C1=C(C)NC(C)=C(C(=O)OC)C1c1ccccc1/C=C/C(=O)OC(C)(C)C` (configuration not stated) belongs 165 to 167 °C; to `CCCCC(=O)c1c(-c2ccc3cc(OCC(=O)O)ccc3c2)oc2ccc(Cl)cc12`, 158 to 160 °C. With `O=C1CCC(C(=O)Nc2ccc(Cl)cc2C(=O)c2ccccc2Cl)O1` (configuration not stated), the melting point was 170 to 173 °C. In turn, `N#Cc1ccc(-c2cn(-c3ccc(OC(F)(F)F)cc3)cn2)cc1` gave a melting point of 155 °C.

Molecule `CC(=O)Nc1cc(Cn2c(C(=O)c3cc(C)cc(Cl)c3)c(C(C)C)c(=O)[nH]c2=O)ccn1` returned a melting point of 241 to 243 °C. To `CC1=C(CCN(O)C(N)=O)c2cc(F)ccc2/C1=C\c1ccc(S(C)(=O)=O)cc1` belongs 187 °C; to `O=S(c1cn(-c2c(Cl)cc(C(F)(F)F)cc2Cl)c(Cl)n1)C(F)(F)F` (configuration not stated), 148 °C; to `CC(C)[C@H](NC(=O)OCc1ccccc1)C(=O)NC(Cc1ccccc1)C(O)C(N)Cc1ccccc1` (some centres not stated), 158 to 160 °C. `COC(=O)CCc1ccc(Oc2ccc(-c3ccc(C#N)cc3)nn2)cc1`: the melting point lay in the range of 164 to 167 °C.

`COC(=O)CSCc1cnc(OC)c([N+](=O)[O-])c1` displayed a melting point of 57 to 60 °C. Next, `COc1cccc(CNC(=O)c2nc3scc(CCOc4ccc(C(=O)O)cc4)c3c(=O)[nH]2)c1`: 237 to 241 °C; `CCOc1cc(O)c2cc(C(C)=O)ccc2n1`: 210 to 219 °C. As to `COC[C@H]1CN(c2ccc([C@H]3CC[C@H](OCC#N)CC3)cc2)C(=O)O1`, the melting point fell in the range of 43 to 45 °C.

The molecule `CCc1nc2c(N)nc(C)c(C)c2n1CCOCCNC(=O)NS(=O)(=O)c1ccccc1` showed a melting point of 201 to 203 °C. To `COC(=O)C(=CNc1ccnc(-c2ccncc2)n1)C(=O)OC` belongs 209 to 211 °C; to `COC(=O)C1=C(C(=O)OC)C(N)C2=C(c3cc4ccccc4s3)N=NC2=N1` (configuration not stated), 218 to 220 °C. Next, `O=C1c2ccccc2C(=O)N1CC1CN(Cc2ccccc2)CCN1Cc1ccccc1` (configuration not stated): 124 °C; `CCCCN(C)CCOc1ccc(Cn2c(-c3ccc(O)cc3)c(C)c3cc(O)ccc32)cc1`: 102 to 107 °C. To `Cn1ccc(=O)c2cc(F)ccc21` belongs 88 to 89 °C; to `O=C(Nc1ccc(N2CCN(C(=O)C(O)c3ccc(O)cc3Cl)CC2)nc1)Nc1ccccc1F` (configuration not stated), 133 to 135 °C. `O=C(O)Cc1sc2nc3ncccc3n2c1-c1ccc(Cl)cc1` returned a melting point of 250 to 252 °C. For the molecule `COc1cc2ccc(CC(=O)O)cc2cc1OC`, the melting point fell in the range of 115 to 117 °C. `Cc1cc(C)c(C(O)c2cccc(-n3ccnc3)c2)c(C)c1` (configuration not stated) registered a melting point of 191 to 193 °C. To `CC1(C)CCC(C)(C)c2cc(CC#Cc3ccc(CO)c(O)c3)ccc21` belongs 94 to 95 °C; to `O=C(Nc1ccc2cc(CN3CCCC3)cnc2c1F)c1ccc(-c2ccc(F)cc2)cc1`, 178 °C.

For `CS(=O)(=O)c1cc(S(N)(=O)=O)sc1CO`, the melting point lay within 175 to 178 °C. To `Cc1cc(I)ccc1NC1=CC2=NCN(C)C2=CC1(F)C(=O)NOCC(O)CO` (configuration not stated) belongs 212 to 213 °C; to `COc1ccc(-c2[nH]cnc2-c2cc(OC)c(O)c(OC)c2)cc1O`, 172 to 173 °C; to `N#Cc1cc(Cl)cc2c1OC(C(F)(F)F)C(C(=O)O)=C2` (configuration not stated), 238 to 240 °C.

Regarding `CC(=O)c1c[nH]c(Cc2ccc(O)cc2)n1`, the melting point was in the range of 229 to 231 °C. In turn, `N#CC(C#N)=C1N(CCCN2CCc3ccccc3C2)CCN1CCN1CCCCC1` registered a melting point of 79 to 81 °C. The molecule `CNC(=O)N(C)C1=NN(C(=O)C(C)(C)C)C(C)S1` (configuration not stated) came in with a melting point of 168 to 169 °C. To `Cc1cc(-c2cc(C(F)(F)F)n3ncc(-c4nc(-c5ccc(S(N)(=O)=O)cc5)no4)c3n2)ccc1C(F)(F)F` belongs 273 °C; to `CCCCCCCCCCCCCCCC(=O)CC(=O)OCC`, 37 to 38 °C. To `COc1cc(C)c(C(=O)c2c(Cl)nc(Cl)c(C(C)=O)c2C(F)(F)F)c(OC)c1OC` belongs 109 to 112 °C; to `CC(C)(C)OC(=O)NN1CCNC1=O`, 186 to 188 °C.

`Cc1cc(OCc2ccc(-c3ccc(C(F)(F)F)cc3)nc2)ccc1OC(C)(C)C(=O)O`: the melting point fell in the range of 149 to 151 °C. Next, `NC(=O)c1cnn2c(-c3ccccc3)ccnc12`: 236 to 238 °C; `O=C(C=Cc1cccnc1)NCCCCC1CCN(C(c2ccccc2)C2CCCCC2)CC1` (configuration not stated): 143 to 145 °C. Next, `COC(=O)C=C1NCCOC1=O`: 76 to 79 °C; `COc1ccc(Oc2c(C)cc(CC#N)cc2C)cc1C(C)C`: 56 to 58 °C.

Consider `CCc1ccc2nc(C)[nH]c2c1N1CC(CNC(C)=O)OC1=O` (configuration not stated), for which the melting point lay within 217 to 218 °C. To `Cc1ccccc1-n1c(=O)nc(N(C)C)n(C)c1=O` belongs 159 to 162 °C; to `COC(=O)c1ccccc1-c1noc(-c2cccc(C(F)(F)F)c2)n1`, 84.5 to 86.5 °C. To `O=C(NC(=O)c1c(F)cccc1F)Nc1ccc(Cl)c(C(F)(F)F)c1` belongs 220 °C; to `O=C(Cn1cnnn1)N(O)CCCP(=O)(O)O`, 157 to 159 °C; to `O=[N+]([O-])c1ccc2c(c1)CCCCN2`, 73 to 75 °C.

`O=c1c2cccnc2c(-c2ccc(Cl)cc2)c2n1CCN2` came in with a melting point of 260 to 262 °C. To `CN1CCC(c2c[nH]c3ccc(NC(=N)c4cccs4)cc23)C(F)C1` (configuration not stated) belongs 115 to 117 °C; to `Cc1nnc(-c2ccc3occ(-c4ccccc4C(F)(F)F)c3c2)o1`, 159 to 160 °C; to `CCOC(=O)CCCNc1ccccc1-c1ccccc1`, 60 to 62 °C. To `Cc1ccc(C)c(C2C(=O)CC(C)(C)CC2=O)c1` belongs 168 to 170 °C; to `CC1(C)COC(c2ccc3c(c2-c2c(C4=NC(C)(C)CO4)ccc4c2OCO4)OCO3)=N1`, 152 to 154 °C. Take `CN=C(ON1C(=O)c2ccccc2C1=O)c1ccccc1`: the melting point was in the range of 174 to 176 °C. To `CCC(=O)N(C(=O)CC)c1cc(-c2c(-c3cccc(C)c3)nc3cccnn23)ccn1` belongs 210 to 211 °C. To `CN1CCC(Oc2ccccc2C(N)=O)C1` (configuration not stated) belongs 116 to 118 °C. To `NC1CN(c2c(F)c(F)c3c(=O)c(C(=O)O)cn(C4CC4)c3c2F)CC1CF` (configuration not stated) belongs 252 to 253 °C; to `O=C1CCC(n2cnc(-c3ccc(F)cc3)c2-c2ccnc(OCCO)n2)CC1`, 203 to 205 °C; to `CN(C)c1ccc2c(c1)C(=O)CC(c1ccc(O)cc1)=N2`, 321 to 323 °C. `Cn1nnnc1S(=O)(=O)Cc1ccccc1`: the melting point is 122 to 125 °C. Next, `CCOc1nc(SC)nc(N2CCS(=O)CC2)c1C=O`: 163 °C. To `Cc1cc(C)cc(C(=O)/C=C/c2nc[nH]c2C)c1` belongs 165 to 166 °C. Take `O=C1OC(=O)c2c(Br)c(Sc3ccccc3)c(Sc3ccccc3)c(Br)c21`: the melting point is 183 to 184 °C. Next, `N#CC(CC(=O)O)c1ccc(Cl)c(Cl)c1` (configuration not stated): 104 °C; `O=C(NC(Cc1ccc(OCc2ccccc2)cc1)C(=O)O)c1cc2cc(-c3ccc(Cl)cc3)ccc2[nH]c1=O` (configuration not stated): 298 to 299 °C.

Regarding `Cc1c(C)c2c(c(C)c1N)[C@H](c1ccc(C(C)C)cc1)[C@H](C)O2` (relative stereo), the melting point was in the range of 91 to 92 °C. `Cc1c(-c2ccc(F)cc2)nc(-c2ccccc2)n1C(C)C` had a melting point of 161 to 162 °C. Next, `CN(C)CCCNc1ncc2c(n1)-c1ccccc1C(c1ccc(Cl)c(Cl)c1)C2` (configuration not stated): 59 to 62 °C. `C(=Cc1ccccc1)C=Nc1ccc(Cc2ccc(N=CC=Cc3ccccc3)cc2)cc1` came in with a melting point of 162 to 164 °C.

In turn, `Cc1c(N2C[C@H](CF)[C@](C)(N)C2)c(F)cc2c(=O)c(C(=O)O)cn([C@@H]3C[C@@H]3F)c12` came in with a melting point of 135 to 137 °C.

For the molecule `COC(=O)c1ccc(OC)c(O)c1O`, the melting point is 100 to 101 °C. To `CCOC(=O)COc1ccc(C=O)cc1NC(=O)c1ccc(OCCCCc2ccccc2)cc1` belongs 109 to 110 °C; to `Clc1ccc2cccc(-c3cccc4ccccc34)c2n1`, 133 to 135 °C; to `Cc1cc([N+](=O)[O-])ccc1N=C1SCC2(CCCC2)N1CC1CCCCC1`, 85 to 87 °C. Next, `CN(CCNC(=O)NCCSCc1csc(NC(=N)N)n1)CCN(Cc1ccc(F)cc1)c1ccccn1`: 132 °C; `O=C(O)CN[C@H]1C[C@H](O)CO1` (relative stereo): 53 to 56 °C; `CCCCOC(=O)CNC(=O)c1nc2ccc(OCCCC)cc2cc1OCc1ccccc1`: 99 to 101 °C. To `O=c1ccc2ccc(OCCCN3CCCN(c4cccc(Cl)c4Cl)CC3)cc2[nH]1` belongs 117 to 118 °C; to `Cc1cc(O)ccc1-n1cc(C(=O)O)c(=O)cc1C1CCC(N(C)C)CC1` (configuration not stated), 207 to 215 °C; to `COc1ccc(F)cc1C(=O)NC1COc2cc(OC)c(S(N)(=O)=O)cc2C1` (configuration not stated), 209 to 210 °C. The molecule `c1ccc(N2CCN(CC[C@H]3CC[C@H](c4c[nH]c5ccccc54)CC3)CC2)nc1` registered a melting point of 147 to 148 °C. To `CCc1cnc2c(NC(=O)c3c(Cl)cccc3Cl)cccc2c1CC(=O)NCc1ccccn1` belongs 162 to 163 °C.

`COC(=O)Cn1c(Cc2ccccc2)ccc(N)c1=O` came in with a melting point of 134 to 136 °C.
